pIC50: −log10 of the molar value. ≈ marks a conversion by molar mass, not a printed value. Square brackets hold non-standard residues; d marks the D form. Peptide text beside a SMILES is read from it. N(1-naphthylmethyl)Gly = O=C(O)CNCc1cccc2ccccc12; 2Nal = N[C@@H](Cc1ccc2ccccc2c1)C(=O)O; Nphe = O=C(O)CNCc1ccccc1; NBuGly = CCCCNCC(=O)O; Nlys = NCCCCNCC(=O)O
What was measured:
in vitro [1] = assay type: cell-based, human; conditions: human
Procedure: (§1) The haemolytic activity of the 24 structurally related peptides (Table 1) was evaluated in erythrocytes from four different species (human, canine, bovine and rat) employing standard methodology. The subsequent release of haemoglobin was used to assess haemolytic activity as function of peptide and peptidomimetic concentration, with concentrations ranging from 0.15 to 150 µM (Presented in whole in Supplementary information Table S1–S4).
(§2) Human and rat (Sprague–Dawley) blood samples were purchased by Bioreclamation IVT (Westbury, NY, USA), collected in tubes containing heparin as anticoagulant and stored at 4 °C before use. Dog and bovine whole blood was collected from in-house animals at Zoetis Animal Health, Kalamazoo, Michigan and stored at 4 °C in tubes containing heparin as anticoagulant. 10 mL of each whole blood sample were centrifuged at 1,500 × g for 5 min and the resulting plasma fraction was removed from the samples. The pellets were washed with an equal volume (10 mL) of saline, mixing by inversion. The centrifuging and washing steps were repeated 5 times. After the last washing step, a volume of PBS was added, and the resulting samples were diluted 1:10 with PBS to yield an RBC concentration of ~ 5 × 10^8 RBC/mL. The assay was performed in a 384-well polypropylene microplate (Greiner 784201, Greiner Bio-One International, GMBH) through a Bravo Liquid Handling Platform 384 system (Agilent Technologies, Santa Clara, CA, USA) according to the previously published procedures. The compounds were tested in serial 1:1 dilutions in PBS, with final concentrations ranging from 150 to 1.2 µM. Melittin was used as reference lytic peptide. 1% TritonX100 and PBS were used as positive and negative (diluent) controls, respectively. The final concentrations were obtained by adding to the wells 7 µL of each solution, melittin or PBS, followed by 63 µL of RBCs to each well. The plate was sealed, shaken on a plate shaker for 20 s, incubated for one hour at 37 °C. Finally, it was centrifuged at 1,500 × g for 5 min at room temperature. 60 µL of supernatants were removed from all plate wells via a Bravo 384 robot and transferred to a flat-bottomed 384-well plate (Greiner UV-Star #7810801, Greiner Bio-One International, GMBH). The plate was centrifuged at 1,000 g for 1 min to remove air bubbles and optical density was measured at 405 nm using a plate reader. Percentage of haemolysis was calculated with the following equation: %haemolysis=(absorbance of test sample)-absorbance of diluent/absorbance of positive control-absorbance of diluent×100.

human erythrocytes = assay: in vitro; assay type: cell-based; conditions: for IC10 haemolysis: human erythrocytes; for pIC50: red cells of human
Procedure: as §1, §2

in vitro [2] = assay type: cell-based, dog; conditions: dog
Procedure: as §1, §2

canine erythrocytes = assay: in vitro; assay type: cell-based, dog; conditions: for IC10 haemolysis: canine erythrocytes; for pIC50: red cells of canine
Procedure: as §1, §2

in vitro [3] = assay type: cell-based, rat (Sprague–Dawley); conditions: Sprague-Dawley, rat
Procedure: as §1, §2

rat erythrocytes = assay: in vitro; assay type: cell-based, rat (Sprague–Dawley); conditions: for IC10 haemolysis: rat erythrocytes; for pIC50: red cells of rat
Procedure: as §1, §2

in vitro [4] = assay type: cell-based, bovine; conditions: bovine
Procedure: as §1, §2

bovine erythrocytes = assay: in vitro; assay type: cell-based; conditions: bovine erythrocytes
Procedure: as §1, §2

[5] = system: Staphylococcus pseudintermedius; conditions: cited from earlier work
Staphylococcus aureus = system: Staphylococcus aureus; design: method as in PMID 30842436; conditions: cited from earlier work
Pseudomonas aeruginosa = system: Pseudomonas aeruginosa; design: method as in PMID 30842436; conditions: cited from earlier work
HaCaT cells = assay type: cell-based, human; conditions: 1 h
Procedure: (§3) An immortalised human keratinocyte (HaCaT) cell line (Gift from David Gram Naym at Bispebjerg Hospital, Denmark), a human liver cancer cell line (HepG2; ATCC HB-8065) and a human epithelial cervical cancer cell line (HeLa; ATCC CCL-2) were cultured to ∼90% confluence after 21–25 h of growth under standard conditions (5% CO2 at 37 °C). Cells were cultured in Dulbecco’s Modified Eagle’s Medium supplemented with 10% (v/v) fetal bovine serum (FBS). All culture media were supplemented with penicillin (100 IU/mL) and streptomycin (100 μg/mL). All cell media and supplements were obtained from Sigma-Aldrich (St. Louis, MO, United States). The 96-well plates were supplied by Corning Costar (Sigma-Aldrich, Brøndby, Denmark). Cell viability assessment was performed on cell monolayers grown to ∼90% confluence in 96-well plates by using the MTS/PMS assay as previously described. Briefly, the adhered cells were washed with PBS solution (37 °C) (ThermoFisher Scientific, Roskilde) and exposed for 1 h at 37 °C to 100 μL of peptides dissolved in the medium also used for culturing of the cell line (at concentrations in the range 0–1,000 μg/mL). The cells were subsequently washed twice with 37 °C PBS and then 100 μL of an MTS/PMS solution in media, consisting of 240 μg/mL MTS (Promega, Madison, WI, United States) and 2.4 mg/mL PMS (Promega, Madison, WI, United States), was added to the cells, which then were incubated for 1 h at 37 °C protected from light. A plate reader (SpectraMax i3X; Molecular devices, San Jose, CA) was used to measure the absorbance at 492 nm. The relative viability was calculated by using 0.2% (w/v) sodium dodecyl sulfate (SDS) as the positive control, while cells exposed to medium without test compound were used as the negative control.

HeLa cells = assay type: cell-based, human; conditions: 1 h
Procedure: as §3

| pIC50 (human erythrocytes) | pIC50 (canine erythrocytes) | pIC50 (rat erythrocytes) | pIC50 (HeLa cells) | Structure (SMILES) | hemolysis at 1 h, 150 µM (in vitro [1]) [%] | IC10 haemolysis (human erythrocytes) [µM] | hemolysis at 1 h, 150 µM (in vitro [2]) [%] | IC10 haemolysis (canine erythrocytes) [µM] | hemolysis at 1 h, 150 µM (in vitro [3]) [%] | IC10 haemolysis (rat erythrocytes) [µM] | hemolysis at 1 h, 150 µM (in vitro [4]) [%] | IC10 haemolysis (bovine erythrocytes) [µM] | MIC against Staphylococcus pseudintermedius [5] [µg/mL] | MIC against Staphylococcus aureus (Staphylococcus aureus) [µg/mL] | MIC against Pseudomonas aeruginosa (Pseudomonas aeruginosa) [µg/mL] | Haemolytic activity (in words) (human erythrocytes) | pIC50 (HaCaT cells) | S.p. MIC ([5]; Staphylococcus pseudintermedius, Table S5, in µM) [µM] |
| --- | --- | --- | --- | --- | --- | --- | --- | --- | --- | --- | --- | --- | --- | --- | --- | --- | --- | --- |
| < 3.82 | < 3.82 | < 3.82 | 2.99 | CC(C)C[C@H](NC(=O)[C@H](Cc1cccc2ccccc12)NC(=O)[C@H](Cc1ccccc1)NC(=O)[C@@H](N)Cc1cccc2ccccc12)C(=O)N[C@@H](CCCCN)C(=O)N[C@@H](CCCCN)C(=O)N[C@@H](CCCCN)C(N)=O [Compound 5, (1-Nal)Ala-Phe-(1-Nal)Ala-Leu-Lys-Lys-Lys] (HELM PEPTIDE1{[N[C@@H](Cc1cccc2ccccc12)C(=O)[*:2]].F.[O=C([C@H](Cc1cccc2ccccc12)N[*:1])[*:2]].L.K.K.K.[am]}$$$$V2.0) | 36 | 35.3 | 22.5 | 29.6 | 10.2 | 147.7 | < 8 | – | 16 (≈ 15.1 µM) | 32 (≈ 30.3 µM) | > 64 | – | 3.28 | 15.1 |
| 3.86 | < 3.82 | < 3.82 | – | CC(C)C[C@H](NC(=O)[C@H](CCCCN)NC(=O)[C@H](Cc1ccc2ccccc2c1)NC(=O)[C@H](Cc1ccccc1)NC(=O)[C@@H](N)Cc1ccc2ccccc2c1)C(=O)N[C@@H](CCCCN)C(=O)N[C@@H](CCCCN)C(N)=O [Compound 13, (2-Nal)Ala-Phe-(2-Nal)Ala-Lys-Leu-Lys-Lys] (HELM PEPTIDE1{[N[C@@H](Cc1ccc2ccccc2c1)C(=O)[*:2]].F.[O=C([C@H](Cc1ccc2ccccc2c1)N[*:1])[*:2]].K.L.K.K.[am]}$$$$V2.0; N-terminus assumed) | 55.3 | 44.2 | 27.4 | 27.1 | < 8 | > 150 | 17.6 | 96.7 | 4 to 8 | 16 (≈ 15.1 µM) | 64 (≈ 60.6 µM) | – | – | – |

The next lines start with the compound.

| Structure (SMILES) | pIC50 (human erythrocytes) | pIC50 (canine erythrocytes) | pIC50 (rat erythrocytes) | pIC50 (HeLa cells) | hemolysis at 1 h, 150 µM (in vitro [1]) [%] | IC10 haemolysis (human erythrocytes) [µM] | hemolysis at 1 h, 150 µM (in vitro [2]) [%] | IC10 haemolysis (canine erythrocytes) [µM] | hemolysis at 1 h, 150 µM (in vitro [3]) [%] | IC10 haemolysis (rat erythrocytes) [µM] | hemolysis at 1 h, 150 µM (in vitro [4]) [%] | IC10 haemolysis (bovine erythrocytes) [µM] | MIC against Staphylococcus pseudintermedius [5] [µg/mL] | MIC against Staphylococcus aureus (Staphylococcus aureus) [µg/mL] | MIC against Pseudomonas aeruginosa (Pseudomonas aeruginosa) [µg/mL] | Haemolytic activity (in words) (human erythrocytes) | pIC50 (HaCaT cells) | S.p. MIC ([5]; Staphylococcus pseudintermedius, Table S5, in µM) [µM] |
| --- | --- | --- | --- | --- | --- | --- | --- | --- | --- | --- | --- | --- | --- | --- | --- | --- | --- | --- |
| CCCC[C@H](NC(=O)[C@H](CCCCN)NC(=O)[C@H](CCCCN)NC(=O)[C@@H](N)CCCCN)C(=O)N[C@@H](Cc1cccc2ccccc12)C(=O)N[C@@H](Cc1ccccc1)C(=O)N[C@@H](Cc1cccc2ccccc12)C(N)=O [Compound 20, Lys-Lys-Lys-Nle-(1-Nal)Ala-Phe-(1-Nal)Ala] (HELM PEPTIDE1{K.K.K.[Nle].[O=C([C@H](Cc1cccc2ccccc12)N[*:1])[*:2]].F.[O=C([C@H](Cc1cccc2ccccc12)N[*:1])[*:2]].[am]}$$$$V2.0) | < 3.82 | < 3.82 | < 3.82 | – | 27.5 | 91.3 | 36 | 45.8 | < 8 | > 150 | 20.1 | 94.7 | 16 to 32 | > 64 | 16 (≈ 15.1 µM) | – | – | – |
| CC(C)C[C@H](NC(=O)CN(CCCCN)C(=O)CN(CCCCN)C(=O)CNCCCCN)C(=O)N[C@@H](Cc1ccc2ccccc2c1)C(=O)N[C@@H](Cc1ccccc1)C(=O)N[C@@H](Cc1ccc2ccccc2c1)C(N)=O [Compound 23, N-Lys-N-Lys-N-Lys-Leu-(2-Nal)Ala-Phe-(2-Nal)Ala] (H-[Nlys][Nlys][Nlys]L[2Nal]F[2Nal]-NH2) | < 3.82 | < 3.82 | < 3.82 | – | 35.9 | 98.7 | 35.1 | 43.3 | < 8 | > 150 | 11.1 | 145.8 | 2 to 4 | 32 (≈ 30.3 µM) | 32 (≈ 30.3 µM) | not highly lytic | – | – |
| CC(C)C[C@@H](NC(=O)[C@H](CCCCN)NC(=O)[C@H](CCCCN)NC(=O)[C@@H](N)CCCCN)C(=O)N[C@H](Cc1ccc2ccccc2c1)C(=O)N[C@H](Cc1ccc(O)cc1)C(=O)N[C@H](Cc1ccc2ccccc2c1)C(N)=O [Compound 24, Lys-Lys-Lys-Leu-(2-Nal)Ala-Tyr-(2-Nal)Ala] (HELM PEPTIDE1{K.K.K.[dL].[O=C([C@@H](Cc1ccc2ccccc2c1)N[*:1])[*:2]].[dY].[O=C([C@@H](Cc1ccc2ccccc2c1)N[*:1])[*:2]].[am]}$$$$V2.0) | < 3.82 | < 3.82 | < 3.82 | – | 23.4 | 76.72 | 38.5 | 45.0 | < 8 | > 150 | 29.8 | 89.6 | 4 to 8 | 16 to 32 | 32 (≈ 29.8 µM) | – | – | – |
| CCCCN(CC(=O)N[C@@H](CCCCN)C(=O)N(CC(=O)N(CC(=O)N(CC(N)=O)Cc1cccc2ccccc12)Cc1ccccc1)Cc1cccc2ccccc12)C(=O)[C@H](CCCCN)NC(=O)[C@@H](N)CCCCN [Compound 14, Lys-Lys-(N-Bu)Gly-Lys-(N1-Nal)Gly-(N-Phe)Gly-(N1-Nal)Gly] (H-KK[NBuGly]K[N(1-naphthylmethyl)Gly][Nphe][N(1-naphthylmethyl)Gly]-NH2) | 3.93 | < 3.82 | < 3.82 | – | 66.4 | 54.0 | 28.1 | 26.23 | 31.6 | 93.1 | 13.9 | 123.9 | 4 (≈ 3.79 µM) | 8 to 16 | 32 (≈ 30.3 µM) | amongst the top five most haemolytic compounds | – | – |

Source: article PMC7414031, “Correlation between hemolytic activity, cytotoxicity and systemic in vivo toxicity of synthetic antimicrobial peptides” (Scientific Reports, 2020)
